Results reported in ChEMBL document CHEMBL4732126, “Design, synthesis, and biodistribution studies of new analogues of marine alkaloids: Potent in vitro and in vivo fungicidal agents against Candida spp” (Eur J Med Chem, 2021).
Activity calls are given as the source filed them. The calls are words filed in the database; no cut-off is given here.

Legend:
[1] = system: Nakaseomyces glabratus; test: Antifungal activity against Candida glabrata ATCC 2001 assessed as reduction in fungal growth incubated for 48 hrs by broth microdilution method; assay type: functional
[2] = system: Candida albicans; test: Antifungal activity against Candida albicans isolate 3 assessed as reduction in fungal growth incubated for 48 hrs by broth microdilution method; assay type: functional
[3] = system: Candida albicans; test: Antifungal activity against Candida albicans isolate 10 assessed as reduction in fungal growth incubated for 48 hrs by broth microdilution method; assay type: functional
[4] = system: Candida albicans; test: Antifungal activity against Candida albicans isolate 13 assessed as reduction in fungal growth incubated for 48 hrs by broth microdilution method; assay type: functional
[5] = system: Candida albicans; test: Fungicidal activity against Candida albicans ATCC 10231 assessed as fungal killing incubated for 48 hrs followed by plating on SD agar plate; assay type: functional; details: read-out: MFC99.9
[6] = system: Pichia kudriavzevii; test: Fungicidal activity against Candida krusei ATCC 34135 assessed as fungal killing incubated for 48 hrs followed by plating on SD agar plate; assay type: functional; details: read-out: MFC99.9
[7] = system: Candida albicans; test: Fungicidal activity against Candida albicans isolate 5 assessed as fungal killing incubated for 48 hrs followed by plating on SD agar plate; assay type: functional; details: read-out: MFC99.9
[8] = system: Candida albicans; test: Fungicidal activity against Candida albicans isolate 7 assessed as fungal killing incubated for 48 hrs followed by plating on SD agar plate; assay type: functional; details: read-out: MFC99.9
[9] = system: Candida albicans; test: Fungicidal activity against Candida albicans isolate 8 assessed as fungal killing incubated for 48 hrs followed by plating on SD agar plate; assay type: functional; details: read-out: MFC99.9
[10] = system: Candida albicans; test: Fungicidal activity against Candida albicans isolate 10 assessed as fungal killing incubated for 48 hrs followed by plating on SD agar plate; assay type: functional; details: read-out: MFC99.9
[11] = system: Candida albicans; test: Fungicidal activity against Candida albicans ATCC 10231 assessed as reduction in fungal load at 7.8 ug/ml incubated for 4 hrs followed by inoculation on SD agar plate for 48 hrs by time-kill assay; assay type: functional; details: dose 7.8 µg/ml; time 52 hrs
[12] = system: Candida albicans; test: Fungicidal activity against Candida albicans ATCC 10231 assessed as reduction in fungal load at 15.6 ug/ml incubated for 4 hrs followed by inoculation on SD agar plate for 48 hrs by time-kill assay; assay type: functional; details: dose 15.6 µg/ml; time 52 hrs
[13] = system: Candida albicans; test: Fungicidal activity against Candida albicans ATCC 10231 assessed as reduction in fungal load at 7.8 to 15.6 ug/ml incubated for 8 hrs followed by inoculation on SD agar plate for 48 hrs by time-kill assay; assay type: functional, organism-based; details: dose 7.8-15.6 µg/ml, time 56.0 hrs
[14] = system: Candida tropicalis; test: Disruption of cell membrane in Candida tropicalis ATCC 28707 assessed as increase in intracellular leakage at MIC incubated for 24 hrs by UV spectrophotometric analysis; assay type: cell-based
[15] = system: Candida albicans; test: Antifungal activity against Candida albicans ATCC 10231 assessed as reduction in fungal growth incubated for 48 hrs in presence of ergosterol by broth microdilution method; assay type: functional
[16] = system: Candida albicans; test: Antifungal activity against Candida albicans ATCC 10231 assessed as reduction in fungal growth incubated for 48 hrs in presence of sorbitol by broth microdilution method; assay type: functional
[17] = system: Nakaseomyces glabratus; test: Antifungal activity against Candida glabrata ATCC 2001 assessed as reduction in fungal growth incubated for 48 hrs in presence of ergosterol by broth microdilution method; assay type: functional
[18] = system: Candida albicans; test: Antifungal activity against Candida albicans ATCC 10231 assessed as inhibition of yeast to hypha morphological transition at 15.6 ug/ml measured upto 72 hrs by microscopic analysis; assay type: functional, organism-based; details: dose 15.6 µg/ml, time hrs <=72
[19] = Toxicity in Swiss mouse assessed as body weight at 0.5 mg/kg, ip measured after 24 hrs (reference value: 36.25 +/- 0.31 g); assay type: organism-based; details: in vivo
[20] = Toxicity in Swiss mouse assessed as body weight at 1 mg/kg, ip measured after 24 hrs (reference value: 36.25 +/- 0.31 g); assay type: organism-based; details: in vivo
[21] = Toxicity in Swiss mouse assessed as relative lung weight at 20 mg/kg, ip measured after 24 hrs (reference value: 6.35 +/- 0.68 g); assay type: organism-based; details: in vivo
[22] = Toxicity in Swiss mouse assessed as relative kidney weight at 10 mg/kg, ip measured after 24 hrs (reference value: 14.91 +/- 0.99 g); assay type: organism-based; details: in vivo
[23] = Toxicity in Swiss mouse assessed as relative spleen weight at 0.5 mg/kg, ip measured after 24 hrs (reference value: 4.02 +/- 0.59 g); assay type: organism-based; details: in vivo
[24] = Toxicity in Swiss mouse assessed as relative spleen weight at 3 mg/kg, ip measured after 24 hrs (reference value: 4.02 +/- 0.59 g); assay type: organism-based; details: in vivo
[25] = Toxicity in Swiss mouse assessed as relative heart weight at 0.5 mg/kg, ip measured after 24 hrs (reference value: 4.75 +/- 0.60 g); assay type: organism-based; details: in vivo
[26] = Toxicity in Swiss mouse assessed as relative heart weight at 10 mg/kg, ip measured after 24 hrs (reference value: 4.75 +/- 0.60 g); assay type: organism-based; details: in vivo
[27] = Toxicity in Swiss mouse assessed as relative heart weight at 20 mg/kg, ip measured after 24 hrs (reference value: 4.75 +/- 0.60 g); assay type: organism-based; details: in vivo
[28] = Toxicity in Swiss mouse assessed as relative liver weight at 3 mg/kg, ip measured after 24 hrs (reference value: 49.42 +/- 7.17 g); assay type: organism-based; details: in vivo
[29] = Toxicity in Swiss mouse assessed as relative liver weight at 20 mg/kg, ip measured after 24 hrs (reference value: 49.42 +/- 7.17 g); assay type: organism-based; details: in vivo
[30] = Toxicity in Swiss mouse assessed as signs of toxicity at 0.5 to 10 mg/kg, ip measured upto 4 hrs; assay type: organism-based; details: in vivo, dose 0.5-10 mg/kg
[31] = Toxicity in Swiss mouse assessed as death of organism at 0.5 to 20 mg/kg, ip measured for 24 hrs; assay type: organism-based; details: in vivo, dose 0.5-20 mg/kg
[32] = system: Candida albicans; test: In vivo antifungal activity in Swiss mouse infected with Candida albicans ATCC 10231 assessed as reduction in fungal load in kidney at 0.5 mg/kg, ip administered at 2, 24 and 48 hrs post-infection and measured per gm of organ at 24 hrs post-last dose (reference value: 2.47); assay type: functional; details: time 72 hrs
[33] = system: Candida albicans; test: In vivo antifungal activity in Swiss mouse infected with Candida albicans ATCC 10231 assessed as reduction in fungal load in liver at 1 mg/kg, ip administered at 2, 24 and 48 hrs post-infection and measured per gm of organ at 24 hrs post-last dose (reference value: 1.80); assay type: functional; details: time 72 hrs
[34] = Toxicity in Swiss mouse assessed as effect on spleen at 0.5 to 10 mg/kg, ip measured after 24 hrs by macroscopic analysis; assay type: organism-based; details: in vivo, dose 0.5-10 mg/kg
[35] = Toxicity in Swiss mouse infected with Candida albicans ATCC 10231 assessed as reduction in body weight at 10 mg/kg, ip administered at 2, 24 and 48 hrs post-infection and measured at 24 hrs after last dose; assay type: organism-based; details: in vivo, 72 h
[36] = Toxicity in Swiss mouse infected with Candida albicans ATCC 10231 assessed as effect on liver weight at 10 mg/kg, ip administered at 2, 24 and 48 hrs post-infection and measured at 24 hrs after last dose; assay type: organism-based; details: in vivo, 72 h
[37] = Toxicity in Swiss mouse infected with Candida albicans ATCC 10231 assessed as effect on kidney at 10 mg/kg, ip administered at 2, 24 and 48 hrs post-infection and measured at 24 hrs after last dose by macroscopic analysis; assay type: organism-based; details: in vivo, 72 h

[Cl-].[N-]=[N+]=NCCCCCCCCCCCCOCCCc1ccc[n+](Cc2ccccc2)c1 showed an MIC [1] of 7.8 µg/mL, an MIC [2] of 7.8 µg/mL and an MIC [3] of 15.6 µg/mL. The MIC [4] was 7.8 µg/mL, the MFC [5] was 7.8 µg/mL and the MFC [6] was 7.8 µg/mL. The MFC [7] was 7.8 µg/mL, the MFC [8] was 3.9 µg/mL and the MFC [9] was 7.8 µg/mL. The MFC [10] was 31.2 µg/mL, the “log(activity)” value [11] was 3 and the “log(activity)” value [12] was 2. The Activity [13] was “Active”, the Activity [14] was “Active” and the MIC [15] was 7.8 µg/mL. The MIC [16] was 7.8 µg/mL, the MIC [17] was 7.8 µg/mL and the Activity [18] was “Active”. For the same compound, the Activity [19] was 37.37 g, the Activity [20] was 37.87 g and the Activity [21] was 5.38 g. The Activity [22] was 15.52 g, the Activity [23] was 3.85 g and the Activity [24] was 4.07 g. The Activity [25] was 5.75 g, the Activity [26] was 4.95 g and the Activity [27] was 4.93 g. The Activity [28] was 45.03 g, the Activity [29] was 45 g and the Activity [30] was “Non-Toxic”. The Activity [31] was “Non-Toxic”, the Activity [32] was 0 log10CFU and the Activity [33] was 1.78 log10CFU. For the same compound, the Activity [34] was “Non-Toxic”, the Activity [35] was “Toxic” and the Activity [36] was “Non-Toxic”. The Activity [37] was “Non-Toxic”.
